From patent US9102591B2, “Benzamides” (H. Lundbeck A/S, priority 2012, dated 2015)

Biological target: P2X7 receptor (Homo sapiens (Human), UniProt Q99572)
Assay: P2X7 FLIPR assay (BzATP-stimulated calcium fluorescence, antagonist IC50)
Assay type: cell-based
How it was run: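 Cells expressing P2X7 receptor (human, rat or mouse), plated 24 hours earlier in low-serum medium, loaded with Fluo-4 NW dye (30 min 37° C, 30 min room temperature).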

Chain of P2X7 receptor (Q99572 whole entry): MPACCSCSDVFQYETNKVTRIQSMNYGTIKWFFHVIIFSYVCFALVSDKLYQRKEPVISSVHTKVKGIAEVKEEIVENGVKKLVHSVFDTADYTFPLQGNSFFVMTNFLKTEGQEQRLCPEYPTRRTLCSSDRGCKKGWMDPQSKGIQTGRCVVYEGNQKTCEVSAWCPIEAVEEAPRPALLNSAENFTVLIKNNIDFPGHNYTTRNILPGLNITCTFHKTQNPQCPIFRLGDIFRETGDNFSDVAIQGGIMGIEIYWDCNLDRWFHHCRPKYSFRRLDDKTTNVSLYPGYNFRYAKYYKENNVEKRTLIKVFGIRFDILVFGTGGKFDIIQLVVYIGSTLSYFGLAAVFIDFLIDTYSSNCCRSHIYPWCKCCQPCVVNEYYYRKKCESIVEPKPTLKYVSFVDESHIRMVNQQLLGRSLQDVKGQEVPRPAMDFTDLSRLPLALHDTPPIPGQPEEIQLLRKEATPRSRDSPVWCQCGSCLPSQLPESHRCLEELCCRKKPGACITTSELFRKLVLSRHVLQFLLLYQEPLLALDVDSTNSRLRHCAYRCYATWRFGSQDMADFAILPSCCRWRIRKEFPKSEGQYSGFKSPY

| IC50 | Structure (SMILES) |
| --- | --- |
| 56 nM | O=C(NCC(c1cnc(C(F)(F)F)nc1)C1CCOCC1)c1ccccc1Cl (single isomer, unassigned; (-)) [(−)2-chloro-N-[2-tetrahydropyran-4-yl-2-[2-(trifluoromethyl)] [(−)2-chloro-N-[2-tetrahydropyran-4-yl-2-[2-(trifluoromethyl)pyrimidin-5-yl]ethyl]benzamide] |
| 94 nM | O=C(NCC(c1ccccc1)c1ccnnc1)c1cccc(Cl)c1Cl (stereo not drawn) [2,3-dichloro-N-(2-phenyl-2-pyridazin-4-yl-ethyl)benzamide] |
| 2 nM | O=C(NCC(c1ccc(F)cc1)c1cnc(C(F)(F)F)nc1)c1ccccc1Cl (single isomer, unassigned; (-)) [(−)2-chloro-N-[2-(4-fluorophenyl)-2-[2-(trifluoromethyl)pyri] [(−)2-chloro-N-[2-(4-fluorophenyl)-2-[2-(trifluoromethyl)pyrimidin-5-yl]ethyl]benzamide] |
| 1.6 nM | O=C(NCC(CC1(C(F)F)CC1)c1ccc(C(F)(F)F)nc1)c1cccc(Cl)c1Cl (stereo not drawn) [2,3-dichloro-N-[3-[1-(difluoromethyl)cyclopropyl]-2-[6-(trifluoromethyl)-3-pyridyl]propyl]benzamide] |
| 2100 nM | Cc1ccccc1C(=O)NCC1(c2ccc(Cl)cc2)CCOCC1 [N-[4-(4-Chloro-phenyl)-tetrahydro-pyran-4-ylmethyl]-2-methyl-benzamide] |
| 7 nM | O=C(NCC(c1ccc(F)cc1)c1ccc(C(F)(F)F)nc1)c1cccc(F)c1Cl (single isomer, unassigned; (-)) [(−)2-chloro-3-fluoro-N-[2-(4-fluorophenyl)-2-[6-(trifluorome] [(−)2-chloro-3-fluoro-N-[2-(4-fluorophenyl)-2-[6-(trifluoromethyl)-3-pyridyl]ethyl]benzamide] |
| 0.71 nM | O=C(NCC(CC1CC1)c1ccc(C(F)(F)F)nc1)c1c(Cl)cccc1Cl (stereo not drawn) [2,6-dichloro-N-(3-cyclopropyl-2-(6-(trifluoromethyl)pyridin-] [2,6-dichloro-N-(3-cyclopropyl-2-(6-(trifluoromethyl)pyridin-3-yl)propyl)benzamide] |
| 1.2 nM | O=C(NCC(CC1CC1)c1ccc(C(F)(F)F)nc1)c1c(Cl)cccc1Cl (single isomer, unassigned; (-)) [(−)2,6-dichloro-N-[3-cyclopropyl-2-[6-(trifluoromethyl)-3-py] [(−)2,6-dichloro-N-[3-cyclopropyl-2-[6-(trifluoromethyl)-3-pyridyl]propyl]benzamide] |
| 18 nM | O=C(NCC(c1ccccc1)c1ccc(C(F)(F)F)nc1)c1c(Cl)cccc1Cl (single isomer, unassigned; (-)) [(−)2,6-dichloro-N-[2-phenyl-2-[6-(trifluoromethyl)-3-pyridyl] [(−)2,6-dichloro-N-[2-phenyl-2-[6-(trifluoromethyl)-3-pyridyl]ethyl]benzamide] |
| 1300 nM | Cc1ccc(C(CNC(=O)c2cccc(Cl)c2Cl)CC2CC2)c(C)n1 (stereo not drawn) [2,3-dichloro-N-[3-cyclopropyl-2-(2,6-dimethyl-3-pyridyl)propyl]benzamide] |
| 6.2 nM | O=C(NCC(c1ccncc1)c1cnc(C(F)(F)F)nc1)c1cccc(Cl)c1Cl (stereo not drawn) [2,3-dichloro-N-[2-(4-pyridyl)-2-[2-(trifluoromethyl)pyrimidin-5-yl]ethyl]benzamide] |
| 720 nM | O=C(NCC(c1ccccc1)c1ccnnc1)c1ccc(Cl)cc1Cl (stereo not drawn) [2,4-dichloro-N-(2-phenyl-2-pyridazin-4-yl-ethyl)benzamide] |
| 6.4 nM | O=C(NCC(c1cnc(C(F)(F)F)nc1)C1CCC(F)(F)CC1)c1ccccc1Cl (single isomer, unassigned; (-)) [(−)2-chloro-N-[2-(4,4-difluorocyclohexyl)-2-[2-(trifluoromet] [(−)2-chloro-N-[2-(4,4-difluorocyclohexyl)-2-[2-(trifluoromethyl)pyrimidin-5-yl]ethyl]benzamide] |
| 1200 nM | Cc1ncc(C(CNC(=O)c2ccccc2Cl)CC2CC2)cn1 (stereo not drawn) [2-chloro-N-[3-cyclopropyl-2-(2-methylpyrimidin-5-yl)propyl]benzamide] |
| 860 nM | Cc1ncc(C(CNC(=O)c2cccc(F)c2Cl)c2ccncc2)cn1 (stereo not drawn) [2-chloro-3-fluoro-N-[2-(2-methylpyrimidin-5-yl)-2-(4-pyridyl)ethyl]benzamide] |
| 15 nM | O=C(NCC(CC1(C(F)(F)F)CC1)c1ccc(C2CC2)nc1)c1cccc(Cl)c1Cl (stereo not drawn) [2,3-dichloro-N-[2-(6-cyclopropyl-3-pyridyl)-3-[1-(trifluoromethyl)cyclopropyl]propyl]benzamide] |
| 43 nM | O=C(NCC1(c2ccc(Cl)cc2)CCOCC1)c1cccc(Cl)c1Cl [2,3-dichloro-N-((4-(4-chlorophenyl)tetrahydro-2H-pyran-4-yl)methyl)benzamide] |
| 12 nM | O=C(NCC(c1ccccc1)c1ccc(C(F)(F)F)nc1)c1c(Cl)cccc1Cl (single isomer, unassigned; (+)) [(+)2,6-dichloro-N-[2-phenyl-2-[6-(trifluoromethyl)-3-pyridyl] [(+)2,6-dichloro-N-[2-phenyl-2-[6-(trifluoromethyl)-3-pyridyl]ethyl]benzamide] |
| 90 nM | Cc1ncc(C(CNC(=O)c2ccccc2Cl)C2CCC(F)(F)CC2)cn1 (stereo not drawn) [2-chloro-N-[2-(4,4-difluorocyclohexyl)-2-(2-methylpyrimidin-5-yl)ethyl]benzamide] |

The remaining lines, values behind:

| Structure (SMILES) | IC50 |
| --- | --- |
| O=C(NCC(c1cnc(C(F)(F)F)nc1)C1CCOCC1)c1cccc(F)c1Cl (single isomer, unassigned; (+)) [(+)2-chloro-3-fluoro-N-[2-tetrahydropyran-4-yl-2-[2-(trifluo] [(+)2-chloro-3-fluoro-N-[2-tetrahydropyran-4-yl-2-[2-(trifluoromethyl)pyrimidin-5-yl]ethyl]benzamide] | 32 nM |
| Cc1ncc(C(CNC(=O)c2c(F)cccc2Cl)C2CCOCC2)cn1 (stereo not drawn) [2-chloro-6-fluoro-N-[2-(2-methylpyrimidin-5-yl)-2-tetrahydropyran-4-yl-ethyl]benzamide] | 1900 nM |
| CS(=O)(=O)c1ccc(Cl)c(C(=O)NCC2(c3ccc(F)nc3)CCC(F)(F)CC2)c1 [2-chloro-N-((4,4-difluoro-1-(6-fluoropyridin-3-yl)cyclohexyl)methyl)-5-(methylsulfonyl)benzamide] | 8.7 nM |
| O=C(NCC1(c2ccc(F)nc2)CCC(F)(F)CC1)c1ccccc1F [N-((4,4-difluoro-1-(6-fluoropyridin-3-yl)cyclohexyl)methyl)-] [N-((4,4-difluoro-1-(6-fluoropyridin-3-yl)cyclohexyl)methyl)-2-fluorobenzamide] | 190 nM |
| O=C(NCC(CC1(C(F)(F)F)CC1)c1ccc(C(F)(F)F)nc1)c1ccccc1F (stereo not drawn) [2-fluoro-N-[3-[1-(trifluoromethyl)cyclopropyl]-2-[6-(trifluoromethyl)-3-pyridyl]propyl]benzamide] | 430 nM |
| O=C(NCC(CC1CC1)c1cnc(C(F)(F)F)nc1)c1cccc(F)c1Cl (stereo not drawn) [2-chloro-N-(3-cyclopropyl-2-(2-(trifluoromethyl)pyrimidin-5-] [2-chloro-N-(3-cyclopropyl-2-(2-(trifluoromethyl)pyrimidin-5-yl)propyl)-3-fluorobenzamide] | 14 nM |
| Cc1ccccc1C(=O)NCC1(c2ccccc2)CCN(C)CC1 [2-Methyl-N-(1-methyl-4-phenyl-piperidin-4-ylmethyl)-benzamide] | 64 nM |
| Cc1ccccc1C(=O)NCC1(c2cccnc2)CCCC1 [2-Methyl-N-(1-pyridin-3-yl-cyclopentylmethyl)-benzamide] | 3600 nM |
| CS(=O)(=O)c1ccc(Cl)c(C(=O)NCC(CC2CC2)c2ccc(C(F)(F)F)nc2)c1 (single isomer, unassigned; (+)) [(+)2-chloro-N-[3-cyclopropyl-2-[6-(trifluoromethyl)-3-pyridy] [(+)2-chloro-N-[3-cyclopropyl-2-[6-(trifluoromethyl)-3-pyridyl]propyl]-5-methylsulfonyl-benzamide] | 560 nM |
| CS(=O)(=O)c1ccc(C(=O)NCC2(c3ccc(C(F)(F)F)nc3)CCC(F)(F)CC2)c(Cl)c1 [2-chloro-N-((4,4-difluoro-1-(6-(trifluoromethyl)pyridin-3-yl)cyclohexyl)methyl)-4-(methylsulfonyl)benzamide] | 1800 nM |
| COc1cccc(C(=O)NCC(CC2CC2)c2ccc(C(F)(F)F)nc2)c1Cl (single isomer, unassigned; (-)) [(−)2-chloro-N-[3-cyclopropyl-2-[6-(trifluoromethyl)-3-pyridy] [(−)2-chloro-N-[3-cyclopropyl-2-[6-(trifluoromethyl)-3-pyridyl]propyl]-3-methoxy-benzamide] | 4.2 nM |
| CC(NC(=O)c1cccc(Cl)c1Cl)C1(c2ccc(Br)nc2)CCC(F)(F)CC1 (stereo not drawn) [N-(1-(1-(6-bromopyridin-3-yl)-4,4-difluorocyclohexyl)ethyl)-2,3-dichlorobenzamide] | 43 nM |
| COc1cccc(C(=O)NCC2(c3ccc(C(F)(F)F)nc3)CCC(F)(F)CC2)c1Cl [2-chloro-N-((4,4-difluoro-1-(6-(trifluoromethyl)pyridin-3-yl)cyclohexyl)methyl)-3-methoxybenzamide] | 7.1 nM |
| O=C(NCC(CC1CC1)c1ccc(C(F)(F)F)nc1)c1c(F)cccc1F (single isomer, unassigned; (+)) [(+)N-[3-cyclopropyl-2-[6-(trifluoromethyl)-3-pyridyl]propyl]] [(+)N-[3-cyclopropyl-2-[6-(trifluoromethyl)-3-pyridyl]propyl]-2,6-difluoro-benzamide] | 740 nM |
| Cc1ccc(C(CNC(=O)c2cccc(C)c2C)CC(C)C)cn1 (stereo not drawn) [2,3-Dimethyl-N-[4-methyl-2-(6-methyl-pyridin-3-yl)-pentyl]-benzamide] | 4.4 nM |
| COc1ccc(C2(CNC(=O)c3cccc(C)c3C)CCCC2)cc1 [N-[1-(4-Methoxy-phenyl)-cyclopentylmethyl]-2,3-dimethyl-benzamide] | 600 nM |
| CC(CNC(=O)c1cccc(F)c1Cl)(CC1CC1)c1cnc(C(F)(F)F)nc1 (single isomer, unassigned; (+)) [(+)2-chloro-N-[3-cyclopropyl-2-methyl-2-[2-(trifluoromethyl)] [(+)2-chloro-N-[3-cyclopropyl-2-methyl-2-[2-(trifluoromethyl)pyrimidin-5-yl]propyl]-3-fluoro-benzamide] | 360 nM |
